ChEMBL document CHEMBL4507268 (2021)

Tests used:
Settings in all cases: Compound concentration 1.0 uM
[1] = molecular target: CDK6/cyclin D3 (Homo sapiens) (UniProt P30281+Q00534)
[2] = molecular target: Dual specificity tyrosine-phosphorylation-regulated kinase 1B (Homo sapiens) (UniProt Q9Y463)
[3] = molecular target: T1, Rhodopsin kinase GRK1 (Homo sapiens) (UniProt Q15835)
T1 sequence (whole entry): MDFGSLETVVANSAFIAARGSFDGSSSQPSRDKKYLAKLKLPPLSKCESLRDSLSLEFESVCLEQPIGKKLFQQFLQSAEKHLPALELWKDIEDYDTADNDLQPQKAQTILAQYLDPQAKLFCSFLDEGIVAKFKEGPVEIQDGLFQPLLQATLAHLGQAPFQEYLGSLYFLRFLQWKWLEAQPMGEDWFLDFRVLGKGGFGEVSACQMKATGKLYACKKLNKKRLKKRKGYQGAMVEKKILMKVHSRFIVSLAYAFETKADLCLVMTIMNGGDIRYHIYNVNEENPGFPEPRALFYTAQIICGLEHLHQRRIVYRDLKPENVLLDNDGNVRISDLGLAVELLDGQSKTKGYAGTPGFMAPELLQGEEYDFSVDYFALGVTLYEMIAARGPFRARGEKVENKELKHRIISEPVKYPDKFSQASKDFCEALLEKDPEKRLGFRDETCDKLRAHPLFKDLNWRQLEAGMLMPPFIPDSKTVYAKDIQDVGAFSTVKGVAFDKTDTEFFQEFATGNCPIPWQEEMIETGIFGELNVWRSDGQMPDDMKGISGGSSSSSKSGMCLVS

[4] = molecular target: T2, MAP/microtubule affinity-regulating kinase 4 (Homo sapiens) (UniProt Q96L34)
T2 sequence (whole entry): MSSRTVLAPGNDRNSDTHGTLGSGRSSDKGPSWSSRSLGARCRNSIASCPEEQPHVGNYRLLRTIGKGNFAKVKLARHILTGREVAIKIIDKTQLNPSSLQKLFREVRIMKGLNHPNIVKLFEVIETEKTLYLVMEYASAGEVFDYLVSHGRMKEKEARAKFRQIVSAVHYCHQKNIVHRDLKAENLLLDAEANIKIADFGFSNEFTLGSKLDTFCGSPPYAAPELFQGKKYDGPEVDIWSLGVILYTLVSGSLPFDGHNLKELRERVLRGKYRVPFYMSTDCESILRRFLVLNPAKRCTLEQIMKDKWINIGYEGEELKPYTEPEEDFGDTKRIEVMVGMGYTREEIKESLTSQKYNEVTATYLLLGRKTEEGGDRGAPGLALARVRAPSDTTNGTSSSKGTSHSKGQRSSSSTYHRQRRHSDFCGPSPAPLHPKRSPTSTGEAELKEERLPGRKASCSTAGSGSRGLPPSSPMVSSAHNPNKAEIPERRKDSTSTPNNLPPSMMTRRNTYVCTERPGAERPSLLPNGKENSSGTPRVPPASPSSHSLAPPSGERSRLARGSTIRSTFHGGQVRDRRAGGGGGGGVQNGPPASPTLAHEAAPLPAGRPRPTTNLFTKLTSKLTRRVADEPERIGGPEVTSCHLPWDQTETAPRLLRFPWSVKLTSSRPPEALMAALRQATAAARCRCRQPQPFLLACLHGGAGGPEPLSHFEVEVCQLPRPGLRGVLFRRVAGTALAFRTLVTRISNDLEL

[5] = molecular target: Serine/threonine-protein kinase MRCK beta (Homo sapiens) (UniProt Q9Y5S2)
[6] = molecular target: Serine/threonine-protein kinase mTOR (Homo sapiens) (UniProt P42345)
[7] = molecular target: T3, Serine/threonine-protein kinase Nek9 (Homo sapiens) (UniProt Q8TD19)
T3 sequence (whole entry): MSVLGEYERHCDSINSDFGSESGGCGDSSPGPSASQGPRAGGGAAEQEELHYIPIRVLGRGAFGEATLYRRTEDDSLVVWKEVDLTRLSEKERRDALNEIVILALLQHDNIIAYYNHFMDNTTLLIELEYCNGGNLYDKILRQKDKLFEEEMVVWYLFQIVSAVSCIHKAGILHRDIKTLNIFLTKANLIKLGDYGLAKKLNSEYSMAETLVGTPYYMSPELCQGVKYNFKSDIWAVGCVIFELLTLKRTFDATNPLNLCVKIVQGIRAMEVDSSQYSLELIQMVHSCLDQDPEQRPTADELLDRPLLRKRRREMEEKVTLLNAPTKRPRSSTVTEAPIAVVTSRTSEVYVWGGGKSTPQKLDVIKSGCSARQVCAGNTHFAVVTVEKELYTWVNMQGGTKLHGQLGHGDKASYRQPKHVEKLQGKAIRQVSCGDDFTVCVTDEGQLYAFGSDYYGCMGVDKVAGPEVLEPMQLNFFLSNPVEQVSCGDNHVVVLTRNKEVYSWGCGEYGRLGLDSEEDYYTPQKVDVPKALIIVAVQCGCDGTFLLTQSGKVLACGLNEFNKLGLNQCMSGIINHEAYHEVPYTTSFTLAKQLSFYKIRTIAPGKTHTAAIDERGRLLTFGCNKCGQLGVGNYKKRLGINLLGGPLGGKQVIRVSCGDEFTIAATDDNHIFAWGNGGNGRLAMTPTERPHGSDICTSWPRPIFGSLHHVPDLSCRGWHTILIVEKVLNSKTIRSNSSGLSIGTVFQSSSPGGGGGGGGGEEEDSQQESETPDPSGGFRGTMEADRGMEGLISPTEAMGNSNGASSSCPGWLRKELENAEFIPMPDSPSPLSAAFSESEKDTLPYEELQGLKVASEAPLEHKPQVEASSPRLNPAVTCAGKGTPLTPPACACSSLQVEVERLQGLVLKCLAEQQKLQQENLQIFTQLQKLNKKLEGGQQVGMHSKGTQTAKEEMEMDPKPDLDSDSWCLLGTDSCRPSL

[8] = molecular target: [Pyruvate dehydrogenase (acetyl-transferring)] kinase isozyme 1, mitochondrial (Homo sapiens) (UniProt Q15118)
[9] = molecular target: Protein kinase C delta type (Homo sapiens) (UniProt Q05655)
Sequence of Protein kinase C delta type (Homo sapiens) (Q05655 whole entry, looked up): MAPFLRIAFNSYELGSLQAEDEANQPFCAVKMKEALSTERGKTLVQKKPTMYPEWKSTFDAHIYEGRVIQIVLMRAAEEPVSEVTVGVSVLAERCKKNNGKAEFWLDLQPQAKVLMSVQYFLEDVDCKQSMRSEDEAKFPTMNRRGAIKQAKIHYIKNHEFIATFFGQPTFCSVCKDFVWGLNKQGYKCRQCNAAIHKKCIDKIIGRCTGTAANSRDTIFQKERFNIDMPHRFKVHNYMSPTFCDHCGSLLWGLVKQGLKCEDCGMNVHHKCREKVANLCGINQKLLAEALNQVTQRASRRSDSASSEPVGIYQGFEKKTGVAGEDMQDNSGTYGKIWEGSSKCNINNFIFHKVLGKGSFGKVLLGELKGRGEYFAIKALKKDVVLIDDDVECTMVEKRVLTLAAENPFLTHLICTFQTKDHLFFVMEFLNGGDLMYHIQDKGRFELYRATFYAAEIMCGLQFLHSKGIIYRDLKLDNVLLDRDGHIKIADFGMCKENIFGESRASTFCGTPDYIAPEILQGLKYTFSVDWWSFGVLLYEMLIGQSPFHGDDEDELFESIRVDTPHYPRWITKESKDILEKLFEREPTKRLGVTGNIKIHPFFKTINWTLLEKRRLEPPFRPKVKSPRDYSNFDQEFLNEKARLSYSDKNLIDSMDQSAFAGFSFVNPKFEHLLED

[10] = molecular target: Rho-associated protein kinase 1 (Homo sapiens) (UniProt Q13464)
Sequence of Rho-associated protein kinase 1 (Homo sapiens) (Q13464 2-1354 limits assumed): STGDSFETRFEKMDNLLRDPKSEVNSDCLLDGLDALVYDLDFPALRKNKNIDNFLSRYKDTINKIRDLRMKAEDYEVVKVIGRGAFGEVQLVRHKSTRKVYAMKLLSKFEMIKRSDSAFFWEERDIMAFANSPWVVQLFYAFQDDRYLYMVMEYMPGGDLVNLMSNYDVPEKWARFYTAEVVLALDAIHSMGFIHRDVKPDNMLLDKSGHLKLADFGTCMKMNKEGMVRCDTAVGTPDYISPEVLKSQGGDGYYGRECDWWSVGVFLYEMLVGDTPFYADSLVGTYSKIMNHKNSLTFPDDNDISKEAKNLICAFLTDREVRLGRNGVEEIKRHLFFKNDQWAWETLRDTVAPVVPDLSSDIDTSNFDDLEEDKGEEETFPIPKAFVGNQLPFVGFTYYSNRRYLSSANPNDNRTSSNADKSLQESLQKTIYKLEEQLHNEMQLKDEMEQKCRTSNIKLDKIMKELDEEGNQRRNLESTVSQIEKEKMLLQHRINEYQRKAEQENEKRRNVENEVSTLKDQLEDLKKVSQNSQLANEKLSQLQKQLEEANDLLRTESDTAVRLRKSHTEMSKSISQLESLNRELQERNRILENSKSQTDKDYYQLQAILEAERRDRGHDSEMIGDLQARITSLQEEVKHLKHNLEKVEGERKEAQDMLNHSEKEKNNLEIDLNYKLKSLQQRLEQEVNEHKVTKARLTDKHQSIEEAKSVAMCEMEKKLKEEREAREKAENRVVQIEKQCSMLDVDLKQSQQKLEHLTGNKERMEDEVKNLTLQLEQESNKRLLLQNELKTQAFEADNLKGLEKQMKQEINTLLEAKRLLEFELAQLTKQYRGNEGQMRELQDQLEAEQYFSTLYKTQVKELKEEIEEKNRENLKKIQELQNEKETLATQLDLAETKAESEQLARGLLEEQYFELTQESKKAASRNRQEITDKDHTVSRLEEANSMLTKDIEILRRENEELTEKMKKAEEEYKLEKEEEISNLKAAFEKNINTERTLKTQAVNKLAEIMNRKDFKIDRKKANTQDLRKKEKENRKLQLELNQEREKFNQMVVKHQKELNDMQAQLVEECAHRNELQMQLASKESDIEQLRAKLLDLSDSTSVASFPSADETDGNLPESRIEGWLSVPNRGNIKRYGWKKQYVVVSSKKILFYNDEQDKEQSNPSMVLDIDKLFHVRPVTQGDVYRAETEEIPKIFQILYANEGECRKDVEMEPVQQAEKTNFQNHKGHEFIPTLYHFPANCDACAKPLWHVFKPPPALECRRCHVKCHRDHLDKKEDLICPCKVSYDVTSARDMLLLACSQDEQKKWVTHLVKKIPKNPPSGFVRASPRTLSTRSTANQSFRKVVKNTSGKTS

[11] = molecular target: Tau-tubulin kinase 2 (Homo sapiens) (UniProt Q6IQ55)
Sequence of Tau-tubulin kinase 2 (Homo sapiens) (Q6IQ55 whole entry): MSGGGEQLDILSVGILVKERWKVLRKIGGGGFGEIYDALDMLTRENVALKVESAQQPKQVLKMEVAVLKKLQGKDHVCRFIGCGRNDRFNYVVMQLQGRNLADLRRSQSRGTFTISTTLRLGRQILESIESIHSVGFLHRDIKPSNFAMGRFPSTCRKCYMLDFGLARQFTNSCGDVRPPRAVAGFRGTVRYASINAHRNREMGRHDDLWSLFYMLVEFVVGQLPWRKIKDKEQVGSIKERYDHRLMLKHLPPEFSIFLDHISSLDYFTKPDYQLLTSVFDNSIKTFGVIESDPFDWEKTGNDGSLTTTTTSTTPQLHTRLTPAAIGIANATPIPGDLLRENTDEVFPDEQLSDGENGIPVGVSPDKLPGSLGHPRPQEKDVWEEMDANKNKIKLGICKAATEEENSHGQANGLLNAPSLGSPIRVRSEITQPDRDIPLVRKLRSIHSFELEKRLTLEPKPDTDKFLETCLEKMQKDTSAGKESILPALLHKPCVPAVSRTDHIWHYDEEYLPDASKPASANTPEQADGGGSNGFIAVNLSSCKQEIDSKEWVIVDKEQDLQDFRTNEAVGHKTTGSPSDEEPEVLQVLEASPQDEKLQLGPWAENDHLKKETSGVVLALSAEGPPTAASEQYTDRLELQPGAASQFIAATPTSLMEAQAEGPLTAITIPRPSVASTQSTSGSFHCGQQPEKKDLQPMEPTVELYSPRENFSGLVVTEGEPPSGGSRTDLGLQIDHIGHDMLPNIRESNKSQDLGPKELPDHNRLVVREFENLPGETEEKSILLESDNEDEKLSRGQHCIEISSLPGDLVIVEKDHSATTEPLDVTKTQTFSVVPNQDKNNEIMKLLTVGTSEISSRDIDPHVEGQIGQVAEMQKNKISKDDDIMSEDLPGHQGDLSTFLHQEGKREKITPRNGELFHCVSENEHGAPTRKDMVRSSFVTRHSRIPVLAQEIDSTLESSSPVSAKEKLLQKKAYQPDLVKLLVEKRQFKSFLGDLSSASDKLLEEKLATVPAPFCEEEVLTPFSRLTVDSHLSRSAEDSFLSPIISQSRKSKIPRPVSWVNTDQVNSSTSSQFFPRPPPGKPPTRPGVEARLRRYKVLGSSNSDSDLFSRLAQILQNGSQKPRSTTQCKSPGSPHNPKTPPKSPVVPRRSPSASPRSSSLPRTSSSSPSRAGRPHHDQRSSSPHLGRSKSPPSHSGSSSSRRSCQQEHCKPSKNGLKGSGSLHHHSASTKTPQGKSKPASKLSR

[12] = molecular target: Wee1-like protein kinase (Homo sapiens) (UniProt P30291)
Sequence of Wee1-like protein kinase (Homo sapiens) (P30291 whole entry, looked up): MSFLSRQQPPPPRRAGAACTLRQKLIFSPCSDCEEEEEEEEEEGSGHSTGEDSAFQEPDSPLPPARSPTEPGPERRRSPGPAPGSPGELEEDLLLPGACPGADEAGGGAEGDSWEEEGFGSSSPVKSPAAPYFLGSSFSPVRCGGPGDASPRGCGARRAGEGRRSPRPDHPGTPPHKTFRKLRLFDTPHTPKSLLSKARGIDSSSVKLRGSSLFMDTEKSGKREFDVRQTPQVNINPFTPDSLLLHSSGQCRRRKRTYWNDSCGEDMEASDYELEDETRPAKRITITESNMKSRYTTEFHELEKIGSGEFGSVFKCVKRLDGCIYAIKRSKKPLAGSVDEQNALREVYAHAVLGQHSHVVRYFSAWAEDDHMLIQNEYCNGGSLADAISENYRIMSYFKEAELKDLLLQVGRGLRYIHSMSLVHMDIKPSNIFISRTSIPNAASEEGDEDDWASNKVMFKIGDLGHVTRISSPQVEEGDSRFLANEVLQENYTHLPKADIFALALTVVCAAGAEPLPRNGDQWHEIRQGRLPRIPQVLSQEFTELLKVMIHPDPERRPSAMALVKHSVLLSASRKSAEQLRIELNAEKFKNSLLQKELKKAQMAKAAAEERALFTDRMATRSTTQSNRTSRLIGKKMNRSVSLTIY

[13] = molecular target: Death-associated protein kinase 3 (Homo sapiens) (UniProt O43293)
Sequence of Death-associated protein kinase 3 (Homo sapiens) (O43293 whole entry, looked up, the tested form may be a part): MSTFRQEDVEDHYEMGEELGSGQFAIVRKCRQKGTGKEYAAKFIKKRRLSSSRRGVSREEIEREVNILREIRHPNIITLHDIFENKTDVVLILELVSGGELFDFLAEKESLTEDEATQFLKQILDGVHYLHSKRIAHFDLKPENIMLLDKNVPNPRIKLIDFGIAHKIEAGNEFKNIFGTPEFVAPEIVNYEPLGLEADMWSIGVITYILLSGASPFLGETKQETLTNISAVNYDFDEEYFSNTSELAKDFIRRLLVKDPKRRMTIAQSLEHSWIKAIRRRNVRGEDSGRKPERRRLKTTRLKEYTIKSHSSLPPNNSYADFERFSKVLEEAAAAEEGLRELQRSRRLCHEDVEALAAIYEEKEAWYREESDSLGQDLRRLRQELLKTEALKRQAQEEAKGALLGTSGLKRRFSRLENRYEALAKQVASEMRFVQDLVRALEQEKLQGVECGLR

[14] = molecular target: Phosphatidylinositol 4-phosphate 3-kinase C2 domain-containing subunit alpha (Homo sapiens) (UniProt O00443)

Measured: % residual kinase activity

Sequence of Dual specificity tyrosine-phosphorylation-regulated kinase 1B (Homo sapiens) (Q9Y463 whole entry, looked up): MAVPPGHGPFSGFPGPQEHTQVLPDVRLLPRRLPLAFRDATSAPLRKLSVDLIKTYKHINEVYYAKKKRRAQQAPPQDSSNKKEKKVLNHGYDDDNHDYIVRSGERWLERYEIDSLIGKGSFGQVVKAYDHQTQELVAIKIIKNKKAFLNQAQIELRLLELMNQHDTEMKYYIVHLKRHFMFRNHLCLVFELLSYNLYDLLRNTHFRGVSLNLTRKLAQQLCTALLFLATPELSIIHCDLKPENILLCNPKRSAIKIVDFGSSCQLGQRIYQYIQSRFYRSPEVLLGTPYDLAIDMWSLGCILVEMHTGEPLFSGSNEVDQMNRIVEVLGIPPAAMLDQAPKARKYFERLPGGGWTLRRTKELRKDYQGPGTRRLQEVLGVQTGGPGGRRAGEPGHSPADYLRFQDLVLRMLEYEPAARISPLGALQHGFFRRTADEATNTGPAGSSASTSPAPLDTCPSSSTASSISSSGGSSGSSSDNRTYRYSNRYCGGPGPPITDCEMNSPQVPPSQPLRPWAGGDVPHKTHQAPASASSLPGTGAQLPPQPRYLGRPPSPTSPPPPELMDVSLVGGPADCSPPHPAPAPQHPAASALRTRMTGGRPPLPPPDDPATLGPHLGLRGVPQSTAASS

CN1CCN(c2cnc3c(C4CCN(C(=O)c5ccc(OC(F)(F)F)cc5N)CC4)ncnc3c2)CC1 [BAY-885]
inactive: [1] 96% | [2] 106% | [3] 117% | [4] 100% | [5] 110% | [6] 104% | [7] 92% | [8] 89% | [9] 115% | [10] 112% | [11] 98% | [12] 108% | [13] 111% | [14] 96%
